# Results published in patent US20020058628A1, “Antioxidants and intracellular glutathione raising agents for therapeutic treatments” (priority 1998, published 2002).
# Entries after “also recorded” stand apart in the source; their conditions may differ.
# B1: interferon-γ: interferon-gamma, survival factor for oligodendrocytes (protein, UniProt P01579 24-161, looked up)
# Interferon gamma: QDPYVKEAENLKKYFNAGHSDVADNGTLFLGILKNWKEESDRKIMQSQIVSFYFKLFKNFKDDQSIQKSVETIKEDMNVKFFNSNKKKRDDFEKLTNYSVTDLNVQRKAIHELIQVMAELSPAAKTGKRKRSQMLFRG
# Key:
# oligodendrocytes = assay: Rescue of purified oligodendrocytes from apoptosis induced by switch to DMEM alone (trophic factor withdrawal); conditions: for enhancement of survival factor (IFN-γ) activity compared with NAC: co-exposure with survival factor
# Description: After 3 days of growth in DMEM-BS, the resulting cultures of pure oligodendrocytes were switched to DMEM alone, a condition that induces apoptosis unless cells are exposed to appropriate growth factors.
# Cells were then switched to DMEM alone, supplemented with 10, 50 or 500 u/ml of interferon-γ, and the number of surviving cells present after a further three days was determined by MTT staining.
# After 3 days in DMEM-BS, the resulting cultures of pure oligodendrocyte were switched to DMEM alone to which was added progesterone+/−1 mM NAC (FIG. 9).
# After 3 days in DMEM-BS, the resulting cultures of pure oligodendrocytes were switched to DMEM alone to which was added 10 μM Trolox+/−1 mM NAC (FIG. 10).
# After 3 days in DMEM-BS, the resulting cultures of pure oligodendrocyte were switched to DMEM alone to which was added (a) progesterone (63 ug/ml)+NAC (1 mM)+trolox (100 uM)+Vitamin C (10 uM) (“combination”) or (b) CNTF (10 ng/ml)+IGF-1 (50 ng/ml)+NT-3 (5 ng/ml) (“combination”).
# In all conditions, the 100% value corresponds to the cell survival seen in cultures of oligodendrocyte not subjected to trophic factor withdrawal.
# After 3 days in DMEM-BS, the resulting cultures of pure oligodendrocytes were switched to DMEM alone to which was added progesterone.
# Purified oligodendrocytes were generated and grown as in previous examples. 3 days after plating, cells were switched either directly to the indicated conditions (open bars) or were first switched to DMEM alone for 24 hr before the indicated factors were added in an attempt to rescue the cells (black bars). Cells were counted 3 days after switch to the indicated conditions.
# spinal ganglion neurons = assay: Neurite outgrowth of spinal ganglion neurons on laminin or L1; assay type: cell-based, rat; conditions: 24 hours, NGF added
# Text: To determine whether compounds that are able to raise intracellular thiol levels are able to enhance the efficacy of yet a different group of cellular signaling systems, we examined the effects of NAC supplementation on the promotion of neurite outgrowth by laminin and by L1. We first determined suboptimal concentrations for the effect of these cellular adhesion molecules, which were attached to tissue culture plastic surfaces in two different manners. Laminin was directly attached to the tissue culture surface with a cross-linking chemistry that preserves the structure of extracellular matrix molecules. L1 was attached as a dimer chimera, cross-linked by an Fc region from a human immunoglobulin molecule, by first adsorbing to the plastic surface an antibody directed against the human immunoglobulin Fc domain, followed by absorption of the L1 dimer to this surface. To promote neuronal survival, nerve growth factor (NGF), the survival factor of the spinal ganglion neurons used in this experiment, was also added at different concentrations. […] After 24 hours cultures were stained with an antibody to beta-III-tubulin and neurite length per neuron was measured.
# 0-2A progenitor cells = assay: PDGF-induced division of purified 0-2A progenitor cells (BrdU incorporation, total cell number); assay type: cell-based, rat
# Description: The effect of NAC on generation of 0-2A progenitors and oligodendrocytes was examined in cultures of purified 0-2A progenitors (prepared as in Example IA) exposed to platelet-derived growth factor (PDGF), the best-characterized mitogen for 0-2A progenitor cells.
# NAC enhances the division-inducing effects of platelet-derived growth factor (PDGF). Purified 0-2A progenitor cells were plated on PLL-coated coverslips at a density of 3,000 cells per cover slip and exposed to PDGF (a known mitogen for these cells) at the indicated concentrations. In addition, cells were exposed to NAC at a variety of concentrations; the effects of 1 mM NAC are illustrated.
# As shown previously, induction of DNA synthesis and increases in cell number by PDGF was dose-dependent.
# embryonic kidney cells = assay: EGF-induced proliferation of embryonic kidney cells; assay type: cell-based, rat; conditions: all EGF concentrations examined
# Description: FIG. 7 was analyzed as for FIG. 1(B), but used embryonic kidney cells. The cells grown in the 96-well trays were derived by dissociation of kidney rudiments from 11 days embryonic rats. Cells were grown in DMEM-BDS+/−epidermal growth factor (at the concentrations indicated)+/−NAC.
# [1] = test system: embryonic sensory neurons; assay: Rescue of embryonic sensory neurons from apoptosis by NGF+NAC; assay type: cell-based; conditions: NAC + 1 or 10 ng/ml NGF on days 1 and 2, labeled on day 3; depending on NAC and NGF concentrations
# Description: Cultures of embryonic sensory neurons were generated according to methods described in Groves et al., Dev. Biol., 159:87-104, (1993), the contents of which are incorporated herein by reference. The cells were exposed to sub-optimal doses of NGF. As shown in FIG. 4 cultures exposed to NAC and either 1 or 10 ng/ml NGF on days 1 and 2 and labeled on day 3 contained 300-1000% more neurons than those exposed to NGF alone, depending upon the concentrations of NAC and NGF applied.
# Neurons were defined by morphology and by labeling with the TUJI antibody against β-tubuli (Groves, A. K., et al., Dev. Biol., 159:87-104 (1993); Moody, S. Q., et al., J. Comp. Neurol., 279:567-580 (1989)) cultures were in DMEM-BS. There was no BrdU labeling of neurons, nor was there any correlation between the extent of BrdU labeling in non-neuronal populations and the number of neurons present (data not shown). Analysis of DNA synthesis by BrdU incorporation (Gatzner, H. G., et al., Science, 318:474-475 (1982) confirmed that this increase in neuronal number was not due to cell division, strongly implicating differential cell death as the reason for the difference.
# Values shown are means+/−SD for quadruplicate coverslips from the one of four experiments, all of which yielded similar results.
molecule,measurement,setting,value
"CC(=O)[C@H]1CC[C@H]2[C@@H]3CCC4=CC(=O)CC[C@]4(C)[C@H]3CC[C@]12C [Progesterone, progesterone]",Survival (as % of DMEM-BS control),oligodendrocytes; Progesterone 6.3 ng/ml alone,4 ± 1%
same,Survival (as % of DMEM-BS control),oligodendrocytes; Progesterone .63 ng/ml alone,0%
"CC(=O)N[C@@H](CS)C(=O)O [NAC, N-acetylcysteine]","extent of survival, NAC in combination with Trolox","oligodendrocytes; 1 mM NAC + 10 μM Trolox, DMEM alone, 3 days",highly significant increases (**)
same,"extent of survival, NAC in combination with Vitamin C","oligodendrocytes; 1 mM NAC + Vitamin C, DMEM alone, 3 days",highly significant increases (**)
same,"extent of survival, NAC in combination with progesterone","oligodendrocytes; 1 mM NAC + progesterone, DMEM alone, 3 days, no RTK/RawTK agonists",highly significant increases (**)
same,extent of survival with CNTF in presence of NAC versus CNTF by itself,"oligodendrocytes; 1 mM NAC + various concentrations of CNTF, DMEM alone, 3 days",significant increases
same,extent of survival with IGF-1 in presence of NAC versus IGF-1 by itself,"oligodendrocytes; 1 mM NAC + various concentrations of IGF-1, DMEM alone, 3 days",significant increases
same,cell survival with NAC alone,"oligodendrocytes; 1 mM NAC alone, DMEM alone, 3 days",did not promote oligodendrocyte survival; also recorded: did not promote cell survival
same,"oligodendrocyte survival, cells switched directly to the indicated conditions","oligodendrocytes; Example I-(L), counted 3 days after switch",not effective at supporting oligodendrocyte survival
same,Survival (as % of DMEM-BS control),oligodendrocytes; NAC 1 mM alone,2 ± 1%
same,extent of survival obtained with IFN-γ when NAC is applied together,oligodendrocytes; NAC 1 mM together with IFN-γ,dramatically enhanced the extent of survival obtained
same,neurite length on L1 with NAC versus without NAC,spinal ganglion neurons; L1 2 micrograms/ml plating concentration,enhanced
same,neurite length on laminin with NAC versus without NAC,spinal ganglion neurons; laminin 2 micrograms/ml plating concentration,enhanced
same,ability of PDGF to induce DNA synthesis (BrdU incorporation) on addition of NAC,0-2A progenitor cells; 1 mM NAC + PDGF,marked increase
same,total number of cells generated by PDGF-induced cell division on addition of NAC,0-2A progenitor cells; 1 mM NAC + PDGF,marked increase
same,induction of cell division by NAC alone,"0-2A progenitor cells; NAC alone, BrdU incorporation and total cell number",had no effect on the induction of cell division
same,effect of NAC on EGF-induced proliferation (cell number),embryonic kidney cells,enhanced the proliferative effects of EGF
same,more neurons than with NGF alone,[1],300-1000%
"IGF-I: oligodendrocyte survival factor, growth factor",Survival (as % of DMEM-BS control),"oligodendrocytes; IGF-I 0.1 ng/ml, DMEM alone, 3 days",1 ± 1%
Cc1c(C)c2c(c(C)c1O)CCC(C)(C(=O)O)O2 (centres unmarked) [Trolox],Survival (as % of DMEM-BS control),oligodendrocytes; Trolox 100 uM alone,6 ± 5%
same,enhancement of survival factor (IFN-γ) activity compared with NAC,oligodendrocytes,"similar, but lesser effects"
PDGF,induction of DNA synthesis and increases in cell number by PDGF,0-2A progenitor cells; PDGF at the indicated concentrations,dose-dependent
O=C1O[C@H]([C@@H](O)CO)C(O)=C1O [Vitamin C],Survival (as % of DMEM-BS control),"oligodendrocytes; 10 uM Vit C alone, Example I(J), DMEM alone, 3 days",2 ± 3%
same,Survival (as % of DMEM-BS control),"oligodendrocytes; VitC 10 uM alone, Example I(K)",1 ± 1%
same,enhancement of survival factor (IFN-γ) activity compared with NAC,oligodendrocytes,"similar, but lesser effects"
B1,oligodendrocyte survival with interferon-γ,"oligodendrocytes; 10, 50 or 500 u/ml, DMEM alone, 3 days, MTT staining",promoted oligodendrocyte survival in a dose-dependent manner
